From patent US8217042B2, “Pyridopyrazines and their use as modulators of kinases” (Zentaris GmbH, priority 2005, dated 2012)

Experiments:
[1] = test system: Erk →pRsk; test: Cellular substrate phosphorylation (Western blotting), Erk substrate Rsk1; assay type: cell-based; settings: 5 h, tumour cell line
Method: (§1) This method enables a statement of whether the kinase modulator investigated achieves the desired effect in a cellular context too, i.e., in this case, a substrate protein downstream of the target kinase is examined for its phosphorylation status. To this end, the cells incubated with substance are lysed and the overall protein is separated on a reducing polyacrylamide gel. Subsequently, the proteins are transferred by means of Western blotting to a PVDF membrane and the substrate bands sought are made visible with specific antibodies and a suitable detection method. The substrate proteins downstream of the target kinases are detected simultaneously with an anti-phospho antibody which is specific in each case and simultaneously a total antibody which recognizes the substrate total protein. The duplex technology of the ODYSSEY imager (LiCOR) enables this simultaneous measurement. The intensity of the total substrate bands is employed to normalize and quantify the phosphorylation inhibition or activation.
(§2) Suitable tumour cell lines (e.g. BxPC3, Hct116 or MDA MB468) were seeded into 6-well microtitre plates in a defined cell count (e.g. 350 000 cells/well for BxPC3 and Hct116) in the particular standard complete media and then incubated overnight in an incubator at 37° C., 5% CO2 and 95% air humidity. The cells were then incubated further for a further 24 h under reduced-serum conditions, i.e. in the particular medium except at only 0.25% serum. The test substances were made up as stock solutions (10 mM) in DMSO and incubated with the cells at final concentrations of 5, 15.8 and 50 μM for 5 h. This was followed by cell lysis in 25 mM Tris, 150 mM NaCl, 10 mM sodium pyrophosphate, 2 mM EGTA, 25 mM beta-glycerophosphate, 25 mM NaF, 10% glycerol, 0.75% NP-40, 100 μM NaVO4 buffer. After protein quantification by means of BCA (bicinchonic acid protein assay kit, Sigma) assay, amounts of protein of about 20 μg per track were separated on a Lammli polyacrylamide gel and then transferred onto a PVDF membrane (Millipore) by means of semi-dry Western blotting at 0.8 mA/cm^2 for 1 h. This was followed by prehybridization of the membrane for 1 hour in I-block reagent (Applied Biosystems) and overnight incubation with the specific antibodies. To determine the Erk and PI3K inhibition, the next substrates Rsk1 downstream were detected with the total antibody (Rsk #sc-231g C-21, Santa Cruz) and the phospho antibody (Phospho-p90RSK (S380) #9341, NEB Cell Signalling) and Akt with the total antibody (Akt1 #sc-20, Santa Cruz) and the phospho antibody (Phospho-Akt (Ser 473) #9271, NEB Cell Signaling). After the membrane had been washed, the secondary antibodies were incubated with anti-rabbit IR Dye 800 (#611-732-127, Rockland) for the phospho antibody and anti-goat Alexa Fluor 680 (#A-21081, […]) for the total protein antibody. After incubation for 30 min at room temperature in the dark, the hybridization of the detection antibody was detected on the membrane by scanning in an ODYSSEY imager (LiCOR).

[2] = test system: PI3K →pAkt; test: Cellular substrate phosphorylation (Western blotting), PI3K substrate Akt; assay type: cell-based; settings: 5 h, tumour cell line
Method: as §1, §2

[3] = test system: Jnk1 + Jnk2; test: Cell-free kinase assay (ALPHA technology), Jnk1 + Jnk2; assay type: biochemical; settings: at 10 μM or 100 μM* ATP, recombinant human kinases
Method: (§3) The inhibitory effect of the inventive compounds was tested on various human serine/threonine kinases, tyrosine kinases and lipid kinases in enzymatic assays. Recombinant human kinases, for example Erk2, PI3Kalpha, -beta, -gamma, -delta, p38alpha, p38gamma, Jnk1, Jnk2 and others were used, in some cases as full-length kinases, in some cases as truncated fragments—but at least consisting of the functional kinase domains. The commercial kinase proteins (Proqinase, Upstate) were used as recombinant fusion proteins with GST (glutathione S-transferase) tag or His tag. Depending on the substrate type, the different kinase reactions were quantified by means of suitable ALPHA™ beads (PerkinElmer). […]
(§4) The fluorescence was detected the next morning in a Fusion™ alpha instrument (Perkin Elmer).
(§5) The calculation of % inhibition values per substance concentration was done by means of the following formula from the raw data determined in the Fusion™ alpha:
(§6) The controls were each determined 8 times, the substance samples each twice. 0% control contained neither any ATP nor any substrate; the 100% control contained no test substance. The IC50 values were determined with GraphPadPrism.

[4] = biological target: T1, PI3Kalpha (Homo sapiens, UniProt P42336); test: Cell-free kinase assay (ALPHA technology), PI3K-ALPHA; assay type: biochemical; settings: 100 μM ATP, recombinant human kinase
T1 construct: in some cases as full-length kinases, in some cases as truncated fragments; purchased Upstate 14-602
T1 sequence (P42336 whole entry, the tested form may be a part): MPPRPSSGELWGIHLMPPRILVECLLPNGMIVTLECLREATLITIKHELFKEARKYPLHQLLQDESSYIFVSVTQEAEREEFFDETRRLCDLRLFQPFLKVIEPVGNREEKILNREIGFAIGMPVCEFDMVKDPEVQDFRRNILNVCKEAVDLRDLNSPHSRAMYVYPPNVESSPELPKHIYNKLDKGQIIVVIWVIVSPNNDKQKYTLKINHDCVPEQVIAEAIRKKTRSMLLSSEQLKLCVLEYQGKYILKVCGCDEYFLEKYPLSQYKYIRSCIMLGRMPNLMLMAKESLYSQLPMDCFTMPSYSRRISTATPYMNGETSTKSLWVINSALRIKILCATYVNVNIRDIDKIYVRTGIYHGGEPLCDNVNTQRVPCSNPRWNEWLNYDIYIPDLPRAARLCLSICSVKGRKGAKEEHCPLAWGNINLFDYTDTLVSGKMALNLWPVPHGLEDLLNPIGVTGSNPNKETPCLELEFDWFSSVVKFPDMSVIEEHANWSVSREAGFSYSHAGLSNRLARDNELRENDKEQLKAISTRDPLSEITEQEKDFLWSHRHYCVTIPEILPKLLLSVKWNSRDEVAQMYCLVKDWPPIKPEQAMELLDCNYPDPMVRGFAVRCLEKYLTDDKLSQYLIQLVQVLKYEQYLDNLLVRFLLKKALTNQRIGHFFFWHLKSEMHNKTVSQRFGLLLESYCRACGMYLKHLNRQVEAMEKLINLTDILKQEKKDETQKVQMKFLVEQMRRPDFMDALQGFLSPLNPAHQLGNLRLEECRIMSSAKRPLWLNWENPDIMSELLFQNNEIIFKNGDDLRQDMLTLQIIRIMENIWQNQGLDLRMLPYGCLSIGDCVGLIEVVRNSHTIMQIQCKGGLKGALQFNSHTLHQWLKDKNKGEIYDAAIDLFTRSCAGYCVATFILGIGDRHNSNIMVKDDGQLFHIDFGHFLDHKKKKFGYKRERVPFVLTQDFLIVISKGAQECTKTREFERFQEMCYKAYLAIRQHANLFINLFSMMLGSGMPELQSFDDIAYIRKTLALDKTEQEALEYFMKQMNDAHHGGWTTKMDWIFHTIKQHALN
T1 sequence (P27986 whole entry partner, the tested form may be a part): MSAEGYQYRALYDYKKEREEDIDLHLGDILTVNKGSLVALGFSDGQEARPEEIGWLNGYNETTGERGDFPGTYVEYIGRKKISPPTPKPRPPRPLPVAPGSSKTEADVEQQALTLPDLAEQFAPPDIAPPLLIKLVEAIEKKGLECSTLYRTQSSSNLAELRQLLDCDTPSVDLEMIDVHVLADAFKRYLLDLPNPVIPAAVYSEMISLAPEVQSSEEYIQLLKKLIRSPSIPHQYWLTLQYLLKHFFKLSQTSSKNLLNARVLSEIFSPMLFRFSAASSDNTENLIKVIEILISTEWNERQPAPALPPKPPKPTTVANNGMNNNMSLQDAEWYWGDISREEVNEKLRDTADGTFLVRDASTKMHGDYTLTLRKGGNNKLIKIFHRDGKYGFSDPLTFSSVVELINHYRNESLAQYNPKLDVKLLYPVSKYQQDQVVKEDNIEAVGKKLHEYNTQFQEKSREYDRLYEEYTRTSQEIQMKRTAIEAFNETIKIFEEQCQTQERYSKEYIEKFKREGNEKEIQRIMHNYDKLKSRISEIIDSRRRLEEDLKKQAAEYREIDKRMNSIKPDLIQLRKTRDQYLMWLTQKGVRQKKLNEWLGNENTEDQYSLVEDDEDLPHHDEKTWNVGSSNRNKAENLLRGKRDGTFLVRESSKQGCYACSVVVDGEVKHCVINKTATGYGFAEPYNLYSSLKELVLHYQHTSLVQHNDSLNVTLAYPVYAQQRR
Method: (§7) The inhibitory effect of the inventive compounds was tested on various human serine/threonine kinases, tyrosine kinases and lipid kinases in enzymatic assays. Recombinant human kinases, for example Erk2, PI3Kalpha, -beta, -gamma, -delta, p38alpha, p38gamma, Jnk1, Jnk2 and others were used, in some cases as full-length kinases, in some cases as truncated fragments—but at least consisting of the functional kinase domains. The commercial kinase proteins (Proqinase, Upstate) were used as recombinant fusion proteins with GST (glutathione S-transferase) tag or His tag. Depending on the substrate type, the different kinase reactions were quantified by means of suitable ALPHA™ beads (PerkinElmer).
(§8) The substrate testing on the Erk assay is described in detail below. Selected test results of the Erk2, PI3Kalpha assays are cited below. […] The kinase reaction was then stopped by adding 10 μl of the ALPHA bead mix (10 μg/ml, #6760617/PerkinElmer), pre-incubated with anti-phospho MBP antibody (320 μM, #05-429/Upstate), in 25 mM Tris, 200 mM NaCl, 100 mM EDTA and 0.3% BSA, and left to stand overnight. • b) PI3K-ALPHAs (e.g. PI3Kalpha): The test substance, 1 ng of PI3Kalpha (#14-602, Upstate), 100 μM ATP and 20 μM PIP2 substrate (#P4508, Echelon) on a 384-well Optiplate (Perkin Elmer) for 1 h in 50 mM Hepes, 50 mM NaCl, 5 mM MgCl2, 0.05% Chaps, 5 mM DTT at pH 7.4. Subsequently, the kinase reaction was stopped by adding the ALPHA bead mix (10 μg/ml, #6760603/PerkinElmer), preincubated with 1 nM GST:Grp1 fusion protein (Upstate) and 15 nM biotinylated PIP3 (#C-39B6/Echelon) in 50 mM Hepes, 50 mM NaCl, 50 mM EDTA and 0.1% BSA, and left to stand overnight.
as §4, §5, §6

[5] = test system: Hct116; test: XTT assay, anti-proliferative action, Hct116; assay type: cell-based; settings: Homo sapiens, HCT-116, 45 h, Hct116 cells, 45 h incubation
Method: (§9) The principle of this test is based on the intracellular reduction of the tetrazolium dye XTT (sodium 3′-[1-(phenylaminocarbonyl)-3,4-tetrazolium]bis(4-methoxy-6-nitro)benzenenesulphonic acid, Sigma) to a formazan dye by mitochondrial dehydrogenases.
(§10) The dye is formed only by metabolically active cells; its photometrically measurable intensity is a quantitative indicator for the presence of living cells. The reduction in the dye formation as a result of incubation of the cells with substances serves as a parameter for the anti-proliferative action.
(§11) The tumour cell lines (ATCC) were seeded in 96-well microtitre plates in a defined cell count (5000 cells/well for BxPC3 and Hct116; 10 000 cells/well for MDA MB468), and then incubated overnight in an incubator at 37° C., 5% CO2 and 95% air humidity. The test substances were made up as stock solutions (10 mM) in DMSO. […] The cell plates were then incubated for 45 h in an incubator at 37° C., 5% CO2 and 95% air humidity.
(§12) For the detection reaction, the XTT substrate was admixed with PMS (N-methyldibenzopyrazine methylsulphate, Sigma) and added to the cells, so as to result in a final concentration of 325 μg of XTT/ml and 2.5 μg PMS/ml. The mixture was then incubated for 3 h at 37° C., 95% air humidity. Subsequently the formazan salt formed by cellular dehydrogenases was quantified at an absorption of 490 nm.
(§13) The evaluation of the % inhibition values was done by means of the following formula from the values for the optical densities measured in each case at 490 nm:
(§14) The controls were determined 8 times each, the substance samples twice each. 0% control contained no cells; the 100% control contained no test substance. The EC50 values were determined with GraphPadPrism.

[6] = test system: BxPC3; test: XTT assay, anti-proliferative action, BxPC3; assay type: cell-based; settings: BxPC3 cells, 45 h incubation
Method: as §9, §10, §11, §12, §13, §14

[7] = test system: MDA-MB468; test: XTT assay, anti-proliferative action, MDA-MB468; assay type: cell-based; settings: MDA-MB468 cells, 45 h incubation
Method: as §9, §10, §11, §12, §13, §14

[8] = biological target: T2, Erk2; test: Cell-free kinase assay (ALPHA technology), Erk2-ALPHA; assay type: biochemical; settings: 10 μM ATP, recombinant human kinase
T2 construct: in some cases as full-length kinases, in some cases as truncated fragments; purchased Upstate 14-173
T2 sequence (P63085 whole entry, the tested form may be a part): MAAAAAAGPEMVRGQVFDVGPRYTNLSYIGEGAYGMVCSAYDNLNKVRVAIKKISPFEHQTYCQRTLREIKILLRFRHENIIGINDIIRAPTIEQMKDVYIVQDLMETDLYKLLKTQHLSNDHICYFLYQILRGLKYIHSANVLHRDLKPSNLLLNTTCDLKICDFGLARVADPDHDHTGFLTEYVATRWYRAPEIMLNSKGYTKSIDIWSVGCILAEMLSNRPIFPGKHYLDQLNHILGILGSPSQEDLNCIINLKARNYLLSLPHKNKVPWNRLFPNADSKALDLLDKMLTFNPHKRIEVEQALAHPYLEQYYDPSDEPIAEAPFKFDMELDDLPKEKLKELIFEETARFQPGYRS
Method: as §7, §8, §4, §5, §6

[9] = biological target: T3, p38alpha (Homo sapiens, UniProt Q16539); test: Cell-free kinase assay (ALPHA technology), p38alpha; assay type: biochemical; settings: at 10 μM or 100 μM* ATP, recombinant human kinase
T3 construct: in some cases as full-length kinases, in some cases as truncated fragments
T3 sequence (Q16539 whole entry, the tested form may be a part): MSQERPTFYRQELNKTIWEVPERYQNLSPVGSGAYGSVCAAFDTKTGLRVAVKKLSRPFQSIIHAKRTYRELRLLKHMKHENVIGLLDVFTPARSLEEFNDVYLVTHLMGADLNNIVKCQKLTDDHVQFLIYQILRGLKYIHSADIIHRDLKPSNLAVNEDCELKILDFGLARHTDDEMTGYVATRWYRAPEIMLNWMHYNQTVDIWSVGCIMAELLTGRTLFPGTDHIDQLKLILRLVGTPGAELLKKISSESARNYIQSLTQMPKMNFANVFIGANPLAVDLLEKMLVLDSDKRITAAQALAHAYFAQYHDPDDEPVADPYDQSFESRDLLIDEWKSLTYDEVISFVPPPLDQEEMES
Method: as §3, §4, §5, §6

Structure (SMILES)	inhibition at 50 µM [1] [%]	melting point	inhibition at 50 µM [2] [%]	IC50 [3] [µM]	IC50 [4] [nM]	EC50 [5] [µM]	EC50 ([6]; Homo sapiens, BXPC-3, 45 h) [µM]	EC50 ([7]; Homo sapiens, MDA-MB-468, 45 h) [µM]	IC50 [8] [nM]	IC50 [9] [µM]	EC50 [6] [µM]	EC50 [7] [µM]
CCNC(=O)Nc1ccc2ncc(-c3ccc(OC(=O)OC)cc3)nc2n1 [Compound 9, 4-[6-(3-Ethylurea)pyrido[2,3-b]pyrazin-3-yl]phenyl methyl carbonate]	90	243 to 245 °C	50	> 100	–	–	–	–	–	–	–	–
CCNC(=O)Nc1ccc2ncc(-c3ccc(OC(=O)OCCOC)cc3)nc2n1 [Compound 10, 4-[6-(3-Ethylurea)pyrido[2,3-b]pyrazin-3-yl]phenyl(2-methoxyethyl)carbonate]	100	230 to 232 °C	100	2.9	–	–	–	–	–	–	–	–
CCNC(=O)Nc1ccc2ncc(-c3cccc(OC(=O)OCCOC)c3)nc2n1 [Compound 16, 3-[6-(3-Ethylurea)pyrido[2,3-b]pyrazin-3-yl]phenyl 2-methoxyethyl carbonate]	–	–	–	5.6	3300	11	> 25	11	513	–	–	–
CCNC(=O)Nc1ccc2ncc(-c3ccc(OC(=O)OCC(C)C)cc3)nc2n1 [Compound 17, 4-[6-(3-Ethylurea)pyrido[2,3-b]pyrazin-3-yl]phenyl isobutyl carbonate]	–	–	–	> 100	11800	3.4	> 25	> 25	167	–	–	–
CCNC(=O)Nc1ccc(-c2cnc3ccc(NC(=O)NCC)nc3n2)cc1 [Compound 23, 1-Ethyl-3-{3-[4-(3-ethylurea)phenyl]pyrido[2,3-b]pyrazin-6-yl}urea]	0	> 350 °C (dec.)	70	5.7	1300	16	> 50	> 25	1900	–	–	–
CCNC(=O)Nc1ccc2ncc(-c3ccc(OC(=O)OCCOC)c(OC)c3)nc2n1 [Compound 32, 4-[6-(3-Ethylurea)pyrido[2,3-b]pyrazin-3-yl]-2-methoxyphenyl 2-methoxyethyl carbonate]	100	–	90	4.2	1300	2.2	5.9	4.5	824	–	–	–
CCNC(=O)Nc1ccc2ncc(Nc3cccc(C(=O)NC)c3)nc2n1 [Compound 50, 3-[6-(3-Ethylurea)pyrido[2,3-b]pyrazin-3-ylamino]-N-methylbenzamide]	–	228 to 234 °C	–	> 31.6	683	–	–	–	4700	18.1	–	–
CCNC(=O)Nc1ccc2ncc(Nc3ccc(CN4CCCCC4)cc3)nc2n1 [Compound 51, 1-Ethyl-3-[3-(4-piperidin-1-ylmethylphenylamino)pyrido[2,3-b]pyrazin-6-yl]urea]	–	221 to 224 °C	–	> 31.6	7500	–	–	–	19100	> 100	–	–
CCNC(=O)Nc1ccc2ncc(-c3ccc(OC(=O)OCCOC)cc3)nc2n1 [Compound 56, 4-[6-(3-Ethylurea)pyrido[2,3-b]pyrazin-3-yl]phenyl 2-methoxyethyl carbonate p-toluenesulphonate]	–	–	–	3.1	1300	9.4	–	–	272	–	> 20	15.5
CONC(=O)Nc1ccc2ncc(-c3ccc(O)c(OC)c3)nc2n1 [Compound 61, 1-Methoxy-3-[3-(4-hydroxy-3-methoxy-phenyl)-pyrido[2,3-b]pyrazin-6-yl]-urea]	–	–	–	2.1	1500	6	–	7.1	300	> 100	–	–
